# Source: US8754047B2, “Peptide compositions and methods of use” (The Research Foundation for the State University of New York, priority 2008, dated 2014)
# Entries after “also recorded” stand apart in the source; their conditions may differ. Positions of bridges follow the written chain, without caps; N, C: chain ends. Residues, ends and D or L forms follow the SMILES beside them.
# Key:
# thioredoxin 1 = target: T1, thioredoxin 1 (Homo sapiens, UniProt P10599); assay: Thioredoxin 1 redox state, native PAGE immunoblot in SW480 cells; format: cell-based; conditions: YJB01 20 μM and 100 μM, YJB05 100 μM
# T1 construct: endogenous in cells; host or cells: SW480 human colon cancer cells
# T1 sequence (P10599 1-105): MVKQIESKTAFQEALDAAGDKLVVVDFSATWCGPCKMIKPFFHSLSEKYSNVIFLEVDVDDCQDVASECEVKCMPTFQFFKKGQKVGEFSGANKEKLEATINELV
# Procedure: (§1) SW480 human colon cancer cells were grown following the instructions of American Type Culture Collection (ATCC, Monassas, Va.). Cells were treated with either no peptide, with YBJ01 (at 20 μM and 100 μM), or with YBJ05 (at 100 μM). 10^6 cells were lysed in 6 mol/L guanidinium chloride, 50 mmol/L Tris/HCL (pH 8.3), 3 mmol/L EDTA, and 0.5% Triton-X-100 containing 50 mmol/L iodoacetic acid. After 30 min at 37° C., the excess idoacetic acid was removed using Microspin G-25 columns (GE Healthcare Life Sciences). Oxidized and reduced thioredxoin was separated by native PAGE. The gel was electroblotted onto a nitrocellulose membrane and probed with thioredoxin antibodies, followed by HRP-conjugated secondary antibody. Bands corresponding to thioredoxin were visualized by ECL.
# as §1, with “10^6 cells from each sample were lysed” for “10^6 cells were lysed”, “native PAGE. […]” for “native PAGE. The gel was electroblotted onto a nitrocellulose membrane and probed with thioredoxin antibodies, followed by HRP-conjugated secondary antibody. Bands corresponding to thioredoxin were visualized by ECL.”
# [1] = system: SW480 human colon cancer cells; assay: Flow cytometry forward/side scatter, proportion of dead cells, SW480; format: cell-based; conditions: 200 μM, 24 hr
# Procedure: (§2) SW480 human colon cancer cells and MCF7 breast cancer cells were grown following the instructions of American Type Culture Collection (ATCC, Monassas, Va.). The cells were treated with the test peptides (YJB01, YJB05, or YJB06) for 24 hrs at concentrations ranging from 0 μM, to 200 μM and subjected to flow cytometric analysis following standard protocols.
# (§3) SW480 human colon cancer cells and MCF7 breast cancer cells were grown following the instructions of American Type Culture Collection (ATCC, Monassas, Va.). The cells were treated with the test peptides for 24 hrs at concentrations ranging from 0 μM, to 200 μM and subjected to flow cytometry analysis following standard protocols. […] The circumscribed (gated, outlined) areas in the figure indicate dead cells; dead cells generally have higher density (side scatter) and smaller size (forward scatter) than living cells.
# [2] = system: MCF-7 human breast cancer cells; assay: Flow cytometry forward/side scatter, proportion of dead cells, MCF7; format: cell-based; conditions: 200 μM, 24 hr
# Procedure: as §2, §3
# [3] = system: SW480 human colon cancer cells; assay: RONS levels by DCFDA probe, flow cytometry; format: cell-based; conditions: 1 hr, control 14.69
# Procedure: (§4) SW480 human colon cancer cells were grown following the instructions of American Type Culture Collection (ATCC, Monassas, Va.). The cells were treated with the test peptide YJB01 for 1 hr at either 20 μM or 100 μM. After treatment, cells were trypsinized and stained with DCFDA (10 μmol/L) for 30 minutes at 37° C. DCFDA fluorescence intensity was analyzed by FACSCaliber (BD Bioscience) following standard protocols. […] Thus, FIG. 6A indicates YJB01 induces RONS production in a concentration dependent manner.
# The levels of RONS in SW480 and MCF-7 cells were evaluated using the methodology described in Rigas, B., and Y. Sun. (2008), using the general RONS probe, dichlorodihydrofluorescein diacetate (DCFDA). (Rigas, B., and Sun., Y., (2008), Br J Cancer 98:1157-1160).
# as §4, with “37°.” for “37° C.”
# [4] = system: SW480 human colon cancer cells; assay: In vitro cell viability assay by MTT / cell Titer-Glo, SW480; conditions: 24 h
# Procedure: 10,000 HT29 or SW480 human colon cancer cells, BxPC-3 human pancreatic cancer cells, and MCF7 and MDA-MB-231 breast cancer cells were obtained from American Type Culture Collection (ATTC), Manassas, Va., and were seeded in separate 96-well plates. After treatment with various concentrations (6.25 μM, 12.5 μM, 25 μM, 50 μM, 100 μM, or 200 μM) of test peptide for 24 h, cells were stained with MTT (3-(4,5-Dimethyl-2-thiazolyl)-2,5-diphenyl-2H-tetrazolium bromide, from Sigma-Aldrich) following the instructions of the manufacturer. Before dissolving MTT in SDS, the HT29 and SW480 cells were photographed using a digital camera connected with a phase-contrast microscope. (FIG. 2A1-8, and FIG. 2B1-6). Cells that are alive convert MTT into formazan in their active mitochondria and appear dark purple; dead cells are not stained by MTT and appear colorless.
# The IC50 is the concentration of the test agent that inhibits cell growth by 50% at 24 hours of exposure. IC50s were determined using the MTT assay or using the cell Titer-Glo method and following the instructions of the manufacturer ([…]). […] (Sun, Y., and Rigas, B., (2008), Cancer Res., 68(20): 8269-8277).
# The effect of peptide YJB02 on SW480 colon cancer cells was compared to the effect of peptide YJB02 on the normal human colon epithelial cell line NCM460. […] The viability was determined as described in Example 2.
compound,measurement,setting,value
CC[C@H](C)[C@H](NC(=O)[C@H](CCCCN)NC(=O)[C@@H](NC(=O)[C@H](CCC(N)=O)NC(=O)[C@H](CCCNC(=N)N)NC(=O)[C@@H]1CCCN1C(=O)[C@H](CCCCN)NC(=O)[C@@H]1CSSC[C@H](NC(=O)[C@H](Cc2c[nH]c3ccccc23)NC(=O)[C@@H](NC(=O)[C@H](C)N)[C@@H](C)O)C(=O)NCC(=O)N2CCC[C@H]2C(=O)N1)[C@@H](C)CC)C(=O)N[C@@H](Cc1c[nH]c2ccccc12)C(=O)N[C@@H](Cc1ccccc1)C(=O)N[C@@H](CCC(N)=O)C(=O)N[C@@H](CC(N)=O)C(=O)N[C@@H](CCCNC(=N)N)C(=O)N[C@@H](CCCNC(=N)N)C(=O)N[C@@H](CCSC)C(=O)N[C@@H](CCCCN)C(=O)N[C@@H](Cc1c[nH]c2ccccc12)C(=O)N[C@@H](CCCCN)C(=O)N[C@@H](CCCCN)C(=O)O [YJB01] (H-ATWCGPCKPRQIKIWFQNRRMKWKK-OH; disulfide 4-7; N-terminus and C-terminus assumed),induction of the oxidized form of thioredoxin 1,thioredoxin 1,induces the oxidized form of thioredoxin 1; also recorded: capable of inducing oxidation
same,"dead cells, SW480",[1],81.19%
same,"dead cells, MCF7",[2],72.12%
same,Geometric Mean of the fluorescence intensity of DCFDA,[3]; 20 μM,19.05
same,Geometric Mean of the fluorescence intensity of DCFDA,[3]; 100 μM,29.6
same,IC50,[4],34.7 µM
